Laboratory results reported in ChEMBL document CHEMBL6120996, “Discovery and optimization of 1,2,4-triazole derivatives as novel ferroptosis inhibitors” (Eur J Med Chem, 2025).
Calls of active or inactive are those of the source. The calls are words filed in the database; no cut-off is given here.

Experiments:
786-0 [1] = assay: Inhibition of RSL3-induced ferroptosis in human 786-0 cells assessed as cell viability incubated for 24 hrs by CellTiter-LumiTM assay; assay type: functional, cell-based; details: 786-0, 24 h
786-0 [2] = assay: Inhibition of RSL3-induced ferroptosis in human 786-0 cells assessed as cell protection by assessing cell morphology at 1 uM incubated for 24 hrs; assay type: functional, cell-based
[3] = Metabolic stability in human plasma assessed as half life at 1 uM by LC-MS/MS analysis; assay type: ADME, cell-free

EC50 (786-0 [1])	half-life at 1 µM [3]	SMILES	Activity (786-0 [2])
330 nM	–	COc1cccc(C2N(c3ccccc3)N=C(C(C)=O)N2c2ccc(N(C)C)cc2)c1OCc1ccc(F)c(Cl)c1 (configuration not stated)	–
150 nM	–	COc1cccc(COc2c(OC)cccc2C2N(c3ccccc3)N=C(C(C)=O)N2c2ccc(N(C)C)cc2)c1 (configuration not stated)	Active
1230 nM	–	CC(=O)C1=NN(c2ccccc2)C(c2cccc(C)c2OCc2ccc(Cl)cc2Cl)N1c1ccc(N(C)C)cc1 (configuration not stated)	Active
140 nM	–	COc1cccc(C2N(c3ccccc3)N=C(C(C)=O)N2c2ccc(N(C)C)cc2)c1OCc1ccc(F)cc1 (configuration not stated)	Active
170 nM	–	COc1cc(COc2c(OC)cccc2C2N(c3ccccc3)N=C(C(C)=O)N2c2ccc(N(C)C)cc2)ccc1F (configuration not stated)	–
130 nM	–	COc1cccc(C2N(c3ccccc3)N=C(C(C)=O)N2c2ccc(N(C)C)cc2)c1OCc1ccc(C)cc1 (configuration not stated)	Active
–	27.9 min	CC(C)[N+](C)(CCOC(=O)C1c2ccccc2Oc2ccccc21)C(C)C [PROPANTHELINE]	–
190 nM	–	COc1cccc(C2N(c3ccccc3)N=C(C(C)=O)N2c2ccc(N(C)C)cc2)c1OCc1cccc(Cl)c1 (configuration not stated)	Active
150 nM	–	COc1cccc(C2N(c3ccccc3)N=C(C(C)=O)N2c2ccc(N(C)C)cc2)c1OCc1ccccc1Cl (configuration not stated)	Active
150 nM	–	COc1cccc(C2N(c3ccccc3)N=C(C(C)=O)N2c2ccc(N(C)C)cc2)c1OCc1c(C)cccc1C (configuration not stated)	Active
150 nM	–	COc1cccc(C2N(c3ccccc3)N=C(C(C)=O)N2c2ccc(N(C)C)cc2)c1OCc1ccccc1C#N (configuration not stated)	Active
3710 nM	–	COc1cccc(C2N(c3ccccc3)N=C(C(C)=O)N2c2ccc(N(C)C)cc2)c1OCc1cc(Cl)cc(Cl)c1 (configuration not stated)	Active
680 nM	–	CC(=O)C1=NN(c2ccccc2)C(c2cc(C)ccc2OCc2ccc(Cl)cc2Cl)N1c1ccc(N(C)C)cc1 (configuration not stated)	Active
300 nM	–	COc1ccc(COc2c(OC)cccc2C2N(c3ccccc3)N=C(C(C)=O)N2c2ccc(N(C)C)cc2)cc1OC (configuration not stated)	–
870 nM	–	COc1cccc(C2N(c3ccccc3)N=C(C(C)=O)N2c2ccc(N(C)C)cc2)c1OCc1ccc(C(C)(C)C)cc1 (configuration not stated)	–
80 nM	–	COc1cccc(C2N(c3ccccc3)N=C(C(C)=O)N2c2ccc(N(C)C)cc2)c1OCc1ccc(C(F)(F)F)cc1 (configuration not stated)	Active
